From patent publication US8729082B2, “Substituted imidazoquinoxalines” (Bayer Intellectual Property GmbH, priority 2009, dated 2014) come the findings set out here.

This experiment deals with T1, human kinase Mps-1 (Homo sapiens, UniProt P33981).
T1 construct: N-terminally GST-tagged human full length recombinant Mps-1 kinase; purchased Invitrogen, Karslruhe, Germany PV4071
T1 sequence (P33981 1-857): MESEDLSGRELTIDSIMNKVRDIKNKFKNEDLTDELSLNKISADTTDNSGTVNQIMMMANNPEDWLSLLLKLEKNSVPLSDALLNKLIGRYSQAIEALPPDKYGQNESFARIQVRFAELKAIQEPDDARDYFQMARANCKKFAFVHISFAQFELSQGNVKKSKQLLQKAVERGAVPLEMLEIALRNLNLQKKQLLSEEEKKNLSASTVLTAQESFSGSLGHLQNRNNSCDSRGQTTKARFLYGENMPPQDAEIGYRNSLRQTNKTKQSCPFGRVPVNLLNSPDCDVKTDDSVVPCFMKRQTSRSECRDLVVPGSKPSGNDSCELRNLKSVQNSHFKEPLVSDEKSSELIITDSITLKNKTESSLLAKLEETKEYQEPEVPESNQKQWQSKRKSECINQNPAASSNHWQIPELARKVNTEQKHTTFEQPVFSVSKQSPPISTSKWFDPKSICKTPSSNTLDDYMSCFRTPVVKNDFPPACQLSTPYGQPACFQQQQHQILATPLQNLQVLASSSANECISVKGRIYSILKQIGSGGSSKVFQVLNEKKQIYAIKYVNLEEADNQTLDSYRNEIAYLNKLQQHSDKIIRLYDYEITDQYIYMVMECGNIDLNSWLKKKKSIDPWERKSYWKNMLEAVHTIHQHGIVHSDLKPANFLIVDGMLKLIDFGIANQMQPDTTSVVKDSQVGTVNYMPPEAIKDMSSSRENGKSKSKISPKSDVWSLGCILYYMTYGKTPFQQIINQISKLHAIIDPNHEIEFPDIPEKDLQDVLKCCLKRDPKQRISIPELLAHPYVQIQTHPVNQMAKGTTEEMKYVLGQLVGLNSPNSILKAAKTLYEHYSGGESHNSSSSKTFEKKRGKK
The experiment can be described thus: Mps-1 kinase assay (HTRF). Type of experiment: biochemical. As to conditions: lowATP; mean; read-out: Mps1 lowATP mean IC50. The procedure, abridged: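 HTRF readout: EDTA-stopped reactions incubated 1 h with europium anti-phospho(Ser/Thr) antibody and streptavidin-XLent, emission ratio 665/620 nm after 350 nm excitation. Kinase step: compound pre-bound 15 min to ~1 nM GST-Mps-1, then 60 min at 22 °C with ATP and biotin-peptide substrate; inhibition scaled between no-inhibitor (0%) and no-enzyme (100%) controls.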
(TR-FRET usually uses a lanthanide donor and a delayed reading to cut background.)
A word on the IC50: it is the concentration at which inhibition is half-maximal. On to `CNC(=O)Nc1ccc(-c2cnc3c(NCc4ccnn4C)nc4cc(C)c(C)cc4n23)cc1` [Example 2-175, 1-[4-(7,8-dimethyl-4-{[(1-methyl-1H-pyrazol-5-yl)methyl]amino}imidazo[1,2-a]quinoxalin-1-yl)phenyl]-3-methylurea], for which the IC50 came out at 199 nM.
As for `CNC(=O)Nc1ccc(-c2cnc3c(NCc4cnn(C)c4)nc4cc(C)c(C)cc4n23)cc1` [Example 2-176, 1-[4-(7,8-dimethyl-4-{[(1-methyl-1H-pyrazol-4-yl)methyl]amino}imidazo[1,2-a]quinoxalin-1-yl)phenyl]-3-methylurea], the concentration for half-maximal inhibition (IC50) came out at 616 nM.
As to `CNC(=O)Nc1ccc(-c2cnc3c(NCCS(N)(=O)=O)nc4cc(C)c(C)cc4n23)cc1` [Example 2-177, 2-[(7,8-dimethyl-1-{4-[(methylcarbamoyl)amino]phenyl}imidazo[1,2-a]quinoxalin-4-yl)amino]ethanesulfonamide], the IC50 worked out at 2240 nM.
The value for `CCCNc1nc2cc(C)c(C)cc2n2c(-c3ccc(C(=O)NC4CC4)c(Cl)c3)cnc12` [Example 2-178, 2-chloro-N-cyclopropyl-4-[7,8-dimethyl-4-(propylamino)imidazo[1,2-a]quinoxalin-1-yl]benzamide] was 24.8 nM; that for `Cc1cc2nc(NCCO)c3ncc(-c4ccc(C(=O)NC5CC5)c(Cl)c4)n3c2cc1C` [Example 2-179, 2-chloro-N-cyclopropyl-4-{4-[(2-hydroxyethyl)amino]-7,8-dimethylimidazo[1,2-a]quinoxalin-1-yl}benzamide] was 130 nM.
On to `Cc1cc2nc(NCCCN3CCOCC3)c3ncc(-c4ccc(C(=O)NC5CC5)c(Cl)c4)n3c2cc1C` [Example 2-180, 2-chloro-N-cyclopropyl-4-(7,8-dimethyl-4-{[3-(morpholin-4-yl)propyl]amino}imidazo[1,2-a]quinoxalin-1-yl)benzamide], for which the IC50 worked out at 473 nM.
For `Cc1cc2nc(NCCC(C)C)c3ncc(-c4ccc(C(=O)NC5CC5)c(Cl)c4)n3c2cc1C` [Example 2-181, 2-chloro-N-cyclopropyl-4-{7,8-dimethyl-4-[(3-methylbutyl)amino]imidazo[1,2-a]quinoxalin-1-yl}benzamide], the IC50 stood at 71.8 nM.
`Cc1cc2nc(NCCCN3CCCC3=O)c3ncc(-c4ccc(C(=O)NC5CC5)c(Cl)c4)n3c2cc1C` [Example 2-182, 2-chloro-N-cyclopropyl-4-(7,8-dimethyl-4-{[3-(2-oxopyrrolidin-1-yl)propyl]amino}imidazo[1,2-a]quinoxalin-1-yl)benzamide]: the IC50 stood at 444 nM.
As for `COCCNc1nc2cc(C)c(C)cc2n2c(-c3ccc(C(=O)NC4CC4)c(Cl)c3)cnc12` [Example 2-183, 2-chloro-N-cyclopropyl-4-{4-[(2-methoxyethyl)amino]-7,8-dimethylimidazo[1,2-a]quinoxalin-1-yl}benzamide], the IC50 stood at 113 nM.
Next, `Cc1cc2nc(NCCCCO)c3ncc(-c4ccc(C(=O)NC5CC5)c(Cl)c4)n3c2cc1C` [Example 2-184, 2-chloro-N-cyclopropyl-4-{4-[(4-hydroxybutyl)amino]-7,8-dimethylimidazo[1,2-a]quinoxalin-1-yl}benzamide]: 33 nM.
As for `CCNc1nc2cc(C)c(C)cc2n2c(-c3ccc(C(=O)NC4CC4)c(Cl)c3)cnc12` [Example 2-185, 2-chloro-N-cyclopropyl-4-[4-(ethylamino)-7,8-dimethylimidazo[1,2-a]quinoxalin-1-yl]benzamide], the IC50 worked out at 97.3 nM.
Regarding `Cc1cc2nc(NCCCO)c3ncc(-c4ccc(C(=O)NC5CC5)c(Cl)c4)n3c2cc1C` [Example 2-186, 2-chloro-N-cyclopropyl-4-{4-[(3-hydroxypropyl)amino]-7,8-dimethylimidazo[1,2-a]quinoxalin-1-yl}benzamide], the IC50 was 117 nM.
Regarding `CCCCNc1nc2cc(C)c(C)cc2n2c(-c3ccc(C(=O)NC4CC4)c(Cl)c3)cnc12` [Example 2-187, 4-[4-(butylamino)-7,8-dimethylimidazo[1,2-a]quinoxalin-1-yl]-2-chloro-N-cyclopropylbenzamide], the 50% inhibitory concentration (IC50) was 26.7 nM.
`CC(=O)NCCNc1nc2cc(C)c(C)cc2n2c(-c3ccc(C(=O)NC4CC4)c(Cl)c3)cnc12` [Example 2-188, 4-(4-{[2-(acetylamino)ethyl]amino}-7,8-dimethylimidazo[1,2-a]quinoxalin-1-yl)-2-chloro-N-cyclopropylbenzamide]: the IC50 worked out at 541 nM.
On to `Cc1cc2nc(NCCCn3ccnc3)c3ncc(-c4ccc(C(=O)NC5CC5)c(Cl)c4)n3c2cc1C` [Example 2-189, 2-chloro-N-cyclopropyl-4-(4-{[3-(1H-imidazol-1-yl)propyl]amino}-7,8-dimethylimidazo[1,2-a]quinoxalin-1-yl)benzamide], for which the IC50 amounted to 82.7 nM.
With `Cc1cc2nc(NCC3CC3)c3ncc(-c4ccc(C(=O)NC5CC5)c(Cl)c4)n3c2cc1C` [Example 2-190, 2-chloro-N-cyclopropyl-4-{4-[(cyclopropylmethyl)amino]-7,8-dimethylimidazo[1,2-a]quinoxalin-1-yl}benzamide], the IC50 is 43.5 nM.
Next, `Cc1cc2nc(NCc3ccccn3)c3ncc(-c4ccc(C(=O)NC5CC5)c(Cl)c4)n3c2cc1C` [Example 2-191, 2-chloro-N-cyclopropyl-4-{7,8-dimethyl-4-[(pyridin-2-ylmethyl)amino]imidazo[1,2-a]quinoxalin-1-yl}benzamide]: 251 nM.
In the case of `Cc1cc2nc(NCc3cccnc3)c3ncc(-c4ccc(C(=O)NC5CC5)c(Cl)c4)n3c2cc1C` [Example 2-192, 2-chloro-N-cyclopropyl-4-{7,8-dimethyl-4-[(pyridin-3-ylmethyl)amino]imidazo[1,2-a]quinoxalin-1-yl}benzamide], the IC50 is 35.5 nM.
For the compound `Cc1cc2nc(NCc3ccncc3)c3ncc(-c4ccc(C(=O)NC5CC5)c(Cl)c4)n3c2cc1C` [Example 2-193, 2-chloro-N-cyclopropyl-4-{7,8-dimethyl-4-[(pyridin-4-ylmethyl)amino]imidazo[1,2-a]quinoxalin-1-yl}benzamide], the IC50 was 51.2 nM.
For `Cc1cc2nc(NCC(C)C)c3ncc(-c4ccc(C(=O)NC5CC5)c(Cl)c4)n3c2cc1C` [Example 2-194, 2-chloro-N-cyclopropyl-4-{7,8-dimethyl-4-[(2-methylpropyl)amino]imidazo[1,2-a]quinoxalin-1-yl}benzamide], the IC50 was 22.7 nM.
The value for `Cc1cc2nc(NCCC(N)=O)c3ncc(-c4ccc(C(=O)NC5CC5)c(Cl)c4)n3c2cc1C` [Example 2-195, 4-{4-[(3-amino-3-oxopropyl)amino]-7,8-dimethylimidazo[1,2-a]quinoxalin-1-yl}-2-chloro-N-cyclopropylbenzamide] was 218 nM; that for `COCCCNc1nc2cc(C)c(C)cc2n2c(-c3ccc(C(=O)NC4CC4)c(Cl)c3)cnc12` [Example 2-196, 2-chloro-N-cyclopropyl-4-{4-[(3-methoxypropyl)amino]-7,8-dimethylimidazo[1,2-a]quinoxalin-1-yl}benzamide] was 140 nM.
On to `Cc1cc2nc(NCCCNC(=O)OC(C)(C)C)c3ncc(-c4ccc(C(=O)NC5CC5)c(Cl)c4)n3c2cc1C` [Example 2-197, tert-butyl [3-({1-[3-chloro-4-(cyclopropylcarbamoyl)phenyl]-7,8-dimethylimidazo[1,2-a]quinoxalin-4-yl}amino)propyl]carbamate], for which the IC50 is 50.5 nM.
Turning to `Cc1cc2nc(NCc3ccn(C)n3)c3ncc(-c4ccc(C(=O)NC5CC5)c(Cl)c4)n3c2cc1C` [Example 2-198, 2-chloro-N-cyclopropyl-4-(7,8-dimethyl-4-{[(1-methyl-1H-pyrazol-3-yl)methyl]amino}imidazo[1,2-a]quinoxalin-1-yl)benzamide], the IC50 came out at 127 nM.
Regarding `Cc1cc2nc(NCc3ccnn3C)c3ncc(-c4ccc(C(=O)NC5CC5)c(Cl)c4)n3c2cc1C` [Example 2-199, 2-chloro-N-cyclopropyl-4-(7,8-dimethyl-4-{[(1-methyl-1H-pyrazol-5-yl)methyl]amino}imidazo[1,2-a]quinoxalin-1-yl)benzamide], the IC50 was 25.9 nM.
For the compound `Cc1cc2nc(NCc3cnn(C)c3)c3ncc(-c4ccc(C(=O)NC5CC5)c(Cl)c4)n3c2cc1C` [Example 2-200, 2-chloro-N-cyclopropyl-4-(7,8-dimethyl-4-{[(1-methyl-1H-pyrazol-4-yl)methyl]amino}imidazo[1,2-a]quinoxalin-1-yl)benzamide], the 50% inhibitory concentration (IC50) was determined as 67.6 nM.
With `Cc1cc2nc(NCCS(N)(=O)=O)c3ncc(-c4ccc(C(=O)NC5CC5)c(Cl)c4)n3c2cc1C` [Example 2-201, 2-chloro-N-cyclopropyl-4-{7,8-dimethyl-4-[(2-sulfamoylethyl)amino]imidazo[1,2-a]quinoxalin-1-yl}benzamide], the IC50 amounted to 62.3 nM.
